# Test results published in PubChem BioAssay AID1419 (Emory University Molecular Libraries Screening Center, 2008).
# Calls of active or inactive are those of the source. No rule for the calls is given here.
# Assay: EBV protein-peptide binding inhibitors, dose response, biochemical, fluorescence polarization (AID 1419)
# Conditions: cell-free protein-peptide binding, 2 h; for fold change: measured here: P channel fold over control, at 54 µM
SMILES,IC50,fold change
COc1ccc2c(c1)c1nc3ccccc3nc1n2Cc1ccc(OC)c(OC)c1,> 54 µM (inactive),2
O=C1CCCC2=C1Sc1ccccc1N2,5.07 µM,1.99
O=c1[nH]c(S)c(/C=C2\C=Nc3ccccc32)s1,2 µM,3.56
Cc1ccc(NC(=O)CN2C(=O)N/C(=C/c3cccn3-c3ccc(C(=O)O)cc3)C2=O)cc1,> 54 µM (inactive),1.2
CN(N=Nc1ccc([N+](=O)[O-])cc1)c1ccccc1,3.98 µM,61.8
O=C(NC(NC(=S)Nc1ccc(Cl)cc1Cl)C(Cl)(Cl)Cl)c1cccc([N+](=O)[O-])c1 (stereo not given),> 54 µM (inactive),0.953
COc1ccc(N=C2S/C(=C\c3ccc(OCC(=O)O)cc3)C(=O)N2CCc2c[nH]c3ccccc23)cc1,1.88 µM,1.05
CCCCOc1ccc(-c2cc(C(F)(F)F)c(C#N)c(SCC(=O)O)n2)cc1,6.68 µM,4
CC1=C/C(=C\c2ccc(Br)o2)C(=O)O1,> 54 µM (inactive),0.98
CCN(CC)c1ccc(/C=C/c2cc(-c3ccccc3)c3ccccc3n2)cc1,13.5 µM,80.7
CC(C)COc1ccc(C(=O)NC(CC(C)C)C(=O)O)cc1 (stereo not given),> 54 µM (inactive),1.07
O=C1c2cccc3cc([N+](=O)[O-])cc(c23)C(=O)N1/N=C/c1ccc(O)cc1O,10 µM,0.933
COc1cc(C2C(C#N)=C(N)OC3=C2C(=O)CCC3)c([N+](=O)[O-])cc1OC (stereo not given),> 54 µM (inactive),1.22
O=[N+]([O-])c1ccc(-c2cn3nc(-c4ccccc4)c(-c4ccccc4)nc3n2)cc1,3.58 µM,21.1
O=[N+]([O-])c1ccc(-c2nc3ccc([N+](=O)[O-])cc3[nH]2)cc1,> 54 µM (inactive),1.04
CSc1nc(N(CCO)CCO)c2sc3nc(-c4ccco4)c4c(c3c2n1)CCC4,> 54 µM (inactive),1.07
CC1=CC(=C(C#N)c2nc3ccccc3s2)C=C(C)N1c1ccc(F)cc1F,3.98 µM,11.2
CC(C)(O)[C@H]1O[C@H]2CC[C@@]3(C)[C@@](O)(CC[C@H]4Cc5c([nH]c6ccccc56)[C@@]43C)C2=CC1=O,2.03 µM,3.36
O=C(N/N=C/c1ccc(F)cc1)c1cc(-c2ccco2)nc2ccccc12,3.56 µM,0.96
O=C(/C(=C(\[O-])c1ccccc1)[n+]1ccc2ccccc2c1)c1ccc(Cl)cc1,8.26 µM,2.35
CC(=O)Nc1ccc(NC2=Nc3ccccc3N3C2=Nc2c(c(C)nn2-c2ccccc2)C3c2ccccc2)cc1 (stereo not given),4.1 µM,3.9
N#Cc1c(SCC(N)=O)nc2c(c1-c1ccc(O)cc1)CCCC2,> 54 µM (inactive),0.89
Nc1ccc(-c2nc3ccc(C(=O)O)cc3s2)cc1,> 54 µM (inactive),1
Cc1cc(/C=N/NC(N)=S)c(O)c(/C=N/NC(N)=S)c1,< 0.42 µM,26.6
CC(=O)Oc1ccc(C(=O)Nc2cccc(C(=O)c3cccc(NC(=O)c4ccc(OC(C)=O)cc4)c3)c2)cc1,> 54 µM (inactive),0.997
COc1ccc(NC(=O)CCl)cn1,2.57 µM,2.89
Cc1ccc(N2C(=O)c3cccc4c(N5CCN(C)CC5)ccc(c34)C2=O)c2cccnc12,< 0.42 µM,31.9

SMILES,IC50,fold change
Cc1ccc(S(=O)(=O)C(C#N)c2nc3ccccc3nc2N2CCCC2)cc1C (stereo not given),> 54 µM (inactive),1.26
COc1cc2c(cc1OC)-c1cc3ccc4c(c3c[n+]1CC2)OCO4,< 0.42 µM,11.6
CCn1c(CSc2nccn2C)nc2cc(C(=O)O)ccc21,13 µM,2.34
CC(C)c1ccc(/C=C/C(=O)n2nnc3ccccc32)cc1,> 54 µM (inactive),0.857
O=c1c(O)cccc2cc(O)c(O)c(O)c12,2.85 µM,1.86
C=CCn1c(=O)/c(=C/c2cc(OC)c(OC)c(OC)c2)s/c1=C(/C#N)c1nc2ccccc2n1C,3.5 µM,15.9
Cc1cc2c(cc1C)NC(c1c(C)n(C)n(-c3ccccc3)c1=O)C1=C(CC(C)(C)CC1=O)N2 (stereo not given),3.25 µM,3.49
CC(=O)c1ccc(Nc2c3c(nc4ccccc24)CCCC3)cc1,> 54 µM (inactive),0.95
O=Cc1cnc(N2CCCCC2)s1,> 54 µM (inactive),1.06
N#CC1=C(N)C(C#N)(C#N)C(c2cccnc2)C2CCCC=C12 (stereo not given),4.81 µM,2.44
COC(=O)c1c(Cl)c2n3ccccc3c(C)c(-c3ccccc3)c-2c1C(=O)OC,2.39 µM,2.2
CCCN1CC=C2C(C#N)=C(N)C(C#N)(C#N)C(c3cccc(OC)c3OC)C2C1 (stereo not given),1.28 µM,7.4
CCOC(=O)C1=NNC(C(=O)c2ccc(Cl)cc2)C1c1ccc(OC)cc1 (stereo not given),> 54 µM (inactive),0.933
CCOC(=O)c1c(Nc2ccccc2N)cc(C)nc1C,> 54 µM (inactive),0.997
Fc1ccc(NCc2cccnc2)cc1F,2.14 µM,3.89
O=C(Nc1cccc([N+](=O)[O-])c1)c1cnccn1,> 54 µM (inactive),1.09
C=C1c2cc(OC)ccc2NC(=O)N1CC,8.9 µM,1.91
COc1ccc2nc(N3CCCCC3)c(C#N)cc2c1,4.61 µM,3.52
Cc1ncc([N+](=O)[O-])n1Cc1cccc2ccccc12,> 54 µM (inactive),0.957
Cc1nc(Cl)c2c(n1)NC1=C(O2)C(=O)CCC1,0.86 µM,22.3
Nc1cc2c3c(cccc3c1)C(=O)N(CCN1CCCC1)C2=O,4.78 µM,3.92
CCN(CC)c1ccc2cc(S(=O)(=O)c3ccc(Cl)cc3)c(=O)oc2c1,6.12 µM,98.4
CC1(C)CC(=O)C2=C(C1)OC(N)=C(C#N)[C@@H]2c1ccccc1[N+](=O)[O-],2.27 µM,4.78
O=c1[nH]c(C(Cl)Cl)nc2sc3c(c12)CCN(Cc1ccccc1)C3,11.8 µM,2
Cc1nnc(N2C(=O)C(O)=C(C(=O)c3ccco3)C2c2ccc(F)cc2)s1 (stereo not given),10.4 µM,2.42
CSC1=N/C(=C\c2ccccc2F)C(=O)S1,> 54 µM (inactive),1.05
C=CCc1cccc2cc(C(=O)Nc3ccc(S(=O)(=O)Nc4nnc(CC)s4)cc3)c(=O)oc12,> 54 µM (inactive),1.08

SMILES,IC50,fold change
Nn1c(Cc2ccccc2F)nnc1SCC(=O)N1CC(=O)Nc2ccccc21,> 54 µM (inactive),1
O=C(Nc1nnc(Cc2ccccc2)s1)c1cnccn1,> 54 µM (inactive),1.06
O=C(COC(=O)c1ccc(NS(=O)(=O)c2cccs2)cc1)NCc1ccco1,> 54 µM (inactive),1.01
CCOC(=O)Cn1c(=O)c(-c2cc(Br)ccc2N)nc2ccccc21,> 54 µM (inactive),6.44
CCOC(=O)C(=O)/C(=C\N(C)C)c1onc(-c2ccccc2)c1C(=O)OC,> 54 µM (inactive),1.05
CCOc1ccc2nc(N3CCCN(C(=O)Nc4ccccc4C)CC3)c(C#N)cc2c1,8.65 µM,8.56
NS(=O)(=O)c1ccc(NC(=O)c2ccc(-c3ccccc3)cc2)cc1,25.1 µM,1.08
CCSc1nnc(-c2sc3nnc(-c4ccccc4)c(-c4ccccc4)c3c2N)o1,2.2 µM,36.9
COc1cc(C2CC(C(F)(F)F)n3ncc(C(=O)O)c3N2)cc(OC)c1OC (stereo not given),> 54 µM (inactive),0.997
O=[n+]1c2c(n([O-])c3cc(F)c(N4CCCC4)cc31)CCCC2,< 0.42 µM,11.6
Cc1ccc(N=C2NC(=O)/C(=C/c3cn(C)c4ccccc34)S2)cc1C,4.47 µM,7.74
CN(C)c1ccc(/C=C/C(=O)c2cccc(Br)c2)cc1,8.66 µM,11.4
COc1cccc(Nc2ncccc2C(=O)NCc2ccccc2)c1,2.59 µM,3.14
C/C=C/C=C/[C@H]1Cc2cc(O)cc(O)c2O1,13 µM,2.04
O=c1nc2s/c(=C\c3ccc(-c4ccccc4[N+](=O)[O-])o3)c(=O)n2nc1-c1ccccc1,< 0.42 µM,9.05
Cc1cc(/C=C(/C#N)c2nc3ccccc3[nH]2)c(C)n1-c1cc(C(=O)O)cc(C(=O)O)c1,2.92 µM,23.1
Cc1ccc2oc(=O)c(/C=C(\O)c3ccccc3)nc2c1,35.4 µM (inactive),2.39
CCOc1ccc(-c2csc(NC(=O)CSC3=NC(=O)CN3C(C)=O)n2)c2ccccc12,> 54 µM (inactive),0.947
Cc1ccc[n+](-c2[nH]c(=O)sc2/C=N/NC(=O)c2ccccc2[O-])c1,34.2 µM (inactive),1.69
C=CCN1CC(c2nc3ccccc3n2CCOc2ccccc2)CC1=O (stereo not given),34.2 µM (inactive),1.08
Cc1ccc(S(=O)(=O)c2cc3c(=O)n4ccccc4nc3n(Cc3ccco3)c2=N)cc1,> 54 µM (inactive),1.74
CC1CN(c2nc3ccccc3nc2C(C#N)C(=O)NCc2ccc3c(c2)OCO3)CC(C)O1 (stereo not given),5.37 µM,4.35
Cc1ccc(-c2nc(SCC(=O)Nc3ccccc3OC(F)F)c3c(C)c(C(=O)O)sc3n2)cc1,18.2 µM,1.05
CCCCCn1c(N)c(-c2nc3ccccc3o2)c2c([N+](=O)[O-])nn(C)c(=O)c21,48.1 µM (inactive),0.443
O=C(Cn1cnc2scc(-c3cccc([N+](=O)[O-])c3)c2c1=O)NCc1ccco1,> 54 µM (inactive),1.04
O=C(Nc1cccc(Cl)c1)c1cc(N=Nc2ccc([N+](=O)[O-])cc2Cl)ccc1O,17.7 µM,0.99
